# Experimental data from patent US7772383B2, “Chemical PCR: Compositions for enhancing polynucleotide amplification reactions” (The Trustees of Princeton University, priority 2002, dated 2010).
# System: bovine brain glycolipid transfer protein (GTP) cDNA (660 bp)
# Assay: PCR amplification of GTP cDNA with diol additives, standard cycling
# Assay type: biochemical
# Details: for Potency / Effective range: GTP; for Potency: 95° C. denaturing, 72° C. extension, normalized maximum densitometric volume of target band: 1,5-Pentanediol = 1; for Effective range: concentration interval over which densitometric volume of target band is at least 50% of maximum volume
# Experimental: Amplification reactions were carried out under the following general conditions. Those skilled in the art will appreciate, however, that to the extent that the conditions (set forth in this application) required for specific experiments described in this example were inconsistent with the following general conditions, limited exceptions to the following general conditions were made The general conditions were as follows: 10 Mm Tris-HCl (Ph 8.8), 50 Mm KCl, 1.5 Mm MgCl2, 0.01% (w/v) gelatin, 0.2 Um primers, 0.06 ng/ul template, 0.2 Mm each Dntp, 0.04 U/ul Taq polymerase. The templates used were bovine brain N-WASP cDNA (1518 bp), a 996 bp segment of human myeloid leukocyte c-jun cDNA, a 511 bp segment of human prostate-specific membrane antigen (PSM) cDNA, and bovine brain glycolipid transfer protein (GTP) cDNA (660 bp). cDNA synthesis was carried out using the FIRST-STRAND® RT-PCR kit from Stratagene on the respective mRNAs purchased from Clontech. All amplification reactions for gene were carried out using a single master batch of cDNA. Taq polymerase and dNTPs were obtained from Stratagene. Primers were obtained from Genosys. Primer melting temperatures (Tms) were calculated using the Genosys oligo calculator program. The sequences of the primers were as follows.
# Polymerase chain reactions for the N-WASP gene were conducted on a ROBOCYCLER® Gradient 40 thermal cycler from Stratagene using 100 ul solutions in 600 ul thin-walled tubes. For expediency, amplification of c-jun, PSM and GTP was carried out in a ROBOCYCLER® Gradient 96 thermal cycler from Stratagene using 50 ul solutions in 200 ul thin-walled tubes. Prior to Taq polymerase addition, a hotstart protocol was carried out that consisted of an initial cycle of 95° C. for 5 minutes (11) to ensure complete first-strand separation, followed by a cycle of 54° C. for 5 minutes. Amplifications were run for 30 cycles. […] Extension was done at 72° C. for periods depending on target length: 2 minutes for N-WASP, 1.5 minutes for c-jun and GTP, and 1 minute for PSM. Annealings were carried out either at fixed concentrations of additives using temperature gradients of 38-56° C. for N-WASP and 44-58° C. for the other targets, or at varying concentrations of additives using fixed temperatures of 41° C. for N-WASP, 50° C. for c-jun and PSM, and 54° C. for GTP.
# Amplification products were analyzed by agarose gel electrophoresis on 0.8% agarose gels in which 20 ul reaction products were loaded with 4 ul loading buffer. Gels were stained with ethidium bromide, visualized on a UV transilluminator (Fisher), and documented by photography. Densitometric quantitation of amplification products was carried out using IMAGE SCANNER® and IMAGE MASTER® software from Amersham Pharmacia. Background correction was done using the software's rolling disc method.
# Investigations into the PCR enhancing capabilities of diol cosolvents were carried out using GTP as the primary template. […] The standard protocol for annealing temperature and concentration gradient screening was again followed. […] These cosolvents were thus omitted from further studies. The optimal annealing temperatures for the remaining compounds were: ethylene glycol, 1,2-propanediol, 1,3-propanediol and cis-1,2-cyclopentanediol—58° C.; 1,2-butanediol—54° C.; 1,3-butanediol and 1,4-butanediol—[…]; 2,4-pentanediol, 1,5-pentanediol, 1,6-hexanediol and MPD—56° C.
Compound,Potency,Effective range [M],"GTP Potency (comparative standard 95/55/72° C., 0.3 M, best result under conventional conditions, normalization reference)"
"CCC(O)CO (centres unmarked) [1,2-Butanediol]",0.57,0.08 to 0.62,–
"OCCCCCO [1,5-Pentanediol]",1.00,0.16 to 0.47,1.00
